# Ends that are not written are not given here. Peptide text beside a SMILES is read from it. * marks the point of attachment. Ethyl(2-palmitoyloxy) = CCCCCCCCCCCCCCCC(=O)OCC*
# Assays:
# [1] = tested on: endogenous CGRP action (capsaicin-induced dermal vasodilation); assay: Capsaicin-induced dermal vasodilation (CIDV), laser Doppler imaging of the mouse ear; assay type: in vivo, C57BL/6J mice; conditions: for effect on CIDV response (antagonist screening): male and female C57BL/6J mice, single s.c. dose 10 min before anesthesia, αCGRP8-37 960 nmol/kg, olcegepant 1150 nmol/kg, K24C-palmitate 320 nmol/kg, capsaicin 60 μg/ear, flux AUC over 15 min vs saline, four to five mice per group; for effect on CIDV response at lower (mass-matched) dose: s.c., flux AUC over 15 min vs matched vehicle group, compared to V8C-palmitate and K24C-palmitate, 4-7 per group
# Experimental: (§1) Experimental design is outlined in Figure 1. Male and female C57BL/6J mice were recruited at 10–12 weeks of age at 20–30 g bodyweight. Animals were randomly allocated to each treatment group. Antagonists were diluted from respective stock solutions into 37°C pre-warmed sterile 0.9% saline containing 0.1% BSA and DMSO at a final amount of 3.2%. The vehicle was 0.9% saline supplemented with 0.1% BSA and 3.2% DMSO. Antagonist or vehicle was administered subcutaneously at a volume of 10 ml/kg. The anesthetic was: ketamine at 10 mg/ml and xylazine at 1 mg/ml, dissolved in sterile 0.9% saline. This was administered via the intraperitoneal route at 10 ml/kg and the anesthetized mouse placed onto a heating pad to maintain constant body temperature. The head was positioned for the dorsal region of both ears to be aligned to the LDI2-HIR Laser Doppler Imager (Moor Instruments) above it. The imager scanned 40 cm from the ear at a scan speed of 4 ms/pixel, with a scan area of approximately 11.0 cm × 4.1 cm and 256 × 45 pixels resolution. This provided a scan rate of approximately 1 scan/min for both ears. Both ears were simultaneously scanned for 3 min to generate the baseline blood flow prior to capsaicin-challenge (Figure 1). Guided by earlier research ([Grant et al., 2002]), capsaicin (Sigma-Aldrich, St. Louis, MO, United States) dissolved in absolute ethanol was applied topically to the ear (60 μg/ear; 10 μl on both dorsal and ventral side). On the contralateral ear, ethanol was applied as a negative control. Both ears were then immediately scanned with the Laser Doppler imager for a continuous 15-min period to capture changes in blood flow (Figure 1).
# Mice were administered subcutaneously with vehicle or antagonist (Figure 1A). Ten minutes later mice were anesthetized and placed on a heating pad. Ten minutes after anesthesia induction, measurement of dermal blood-flow commenced. Either a single dose of antagonist as specified in the figures was used or a dose-ranging study was conducted. For the dose-ranging study, either hαCGRP8-37 or hαCGRP8-37 V8C-palmitate (V8C-palmitate) at a dose of 320, 960 or 3,200 nmol/kg was used. Doses were selected based on existing literature and our own pilot trials to characterize optimal (and maximal/minimal) effective dose within the bounds of solubility limits ([Saxen et al., 1994]; [Grant et al., 2002]; [Gohin et al., 2015]; [Aubdool et al., 2016]).
# Mice were administered subcutaneously with vehicle or either hαCGRP8-37 (960 nmol/kg) or V8C-palmitate (960 nmol/kg) at 10, 20, 30 or 60 min prior to anesthesia and baseline read (Figure 1A). Ten minutes after anesthesia induction, measurement of dermal blood-flow began. To study the time of onset of antagonist activity, a shorter period between treatment administration and capsaicin challenge was utilized (T0) (Figure 1B). Here, mice were anesthetized and placed on the heating pad prior to peptide administration. Immediately after peptide administration, measurement of dermal blood-flow began.
# For laser doppler imaging (LDI) scans, mean flux values of the whole scanned ear region for both ethanol (control) and capsaicin-treated ears at each time point (per minute) were analyzed using the MoorLDI Review 6.1 software. Mean flux values were normalized to the mean flux values averaged from the three continuous baseline scans and a time course is generated. Area under the curve (AUC) of the % flux mean after capsaicin application (t ≥ 0) was measured for each animal, grouped and compared between different ears or treatment arms. […] Time courses and time points were compared using repeated measures two-way ANOVA with Bonferonni’s multiple comparisons test.
# [2] = Solubility limit of the dosing solution; assay type: physicochemical; conditions: dosing vehicle 0.9% saline with 0.1% BSA and 3.2% DMSO; limited the maximum dose to 320 nmol/kg (10 ml/kg)
# Experimental: as §1, with “Guided by earlier research ([Grant et al., 2002]), capsaicin (Sigma-Aldrich, St. Louis, MO, United States) dissolved in absolute ethanol was applied topically to the ear (60 μg/ear; 10 μl on both dorsal and ventral side). On the contralateral ear, ethanol was applied as a negative control. Both ears were then immediately scanned with the Laser Doppler imager for a continuous 15-min period to capture changes in blood flow (Figure 1).” left out
# [3] = target: T1, human CGRP receptor (CLR:RAMP1) (Homo sapiens, UniProt O60894+Q16602); assay: cAMP assay, antagonism of αCGRP at the human CGRP receptor in transfected Cos-7 cells; assay type: cell-based; conditions: for pA2, CGRPr: non-lipidated analogues, single antagonist concentration 30 nM, agonist αCGRP, mean ± SEM of three independent experiments, SEM; for fold less potent compared to αCGRP8-37 at the CGRP receptor: from pA2 values at 30 nM
# T1 construct: HA; myc; expressed in transfected cells; host or cells: Cos-7
# T1 sequence (Q16602 23-461): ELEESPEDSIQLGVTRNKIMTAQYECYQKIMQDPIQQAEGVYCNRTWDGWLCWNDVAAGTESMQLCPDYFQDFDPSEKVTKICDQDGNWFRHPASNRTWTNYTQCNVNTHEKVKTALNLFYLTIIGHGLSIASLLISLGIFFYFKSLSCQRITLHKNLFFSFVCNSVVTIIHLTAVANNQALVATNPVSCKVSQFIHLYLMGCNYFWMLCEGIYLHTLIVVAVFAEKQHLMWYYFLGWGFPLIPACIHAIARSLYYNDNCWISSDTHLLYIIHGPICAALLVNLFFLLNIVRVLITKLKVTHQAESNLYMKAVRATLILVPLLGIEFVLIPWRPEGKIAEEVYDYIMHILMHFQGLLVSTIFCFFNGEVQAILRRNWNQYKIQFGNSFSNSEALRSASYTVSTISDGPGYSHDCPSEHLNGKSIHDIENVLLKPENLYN
# T1 sequence (O60894 27-148): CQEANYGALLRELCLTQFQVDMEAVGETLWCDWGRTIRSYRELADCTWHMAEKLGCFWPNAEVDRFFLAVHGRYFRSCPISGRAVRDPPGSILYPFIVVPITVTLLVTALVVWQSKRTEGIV
# Experimental: (§2) Data were analyzed using GraphPad Prism versions 7–9 (GraphPad Software Inc., San Diego, CA, Unite States). Concentration-response cAMP data were fitted via non-linear regression using a four-parameter logistic equation. An extra sum-of-squares F-test was conducted to determine whether the Hill slope was equal to one. […] The maximal (Emax) and minimal (Emin) responses were not constrained between independent experiments to obtain the pEC50 value.
# (§3) The Schild slope was also constrained to one.
# [4] = target: T2, human AMY1 receptor (CTR/RAMP1) (Homo sapiens, UniProt O60894+P30988); assay: cAMP assay, antagonism of αCGRP at the human AMY1 receptor in transfected Cos-7 cells; assay type: cell-based; conditions: for pA2, AMY1r: non-lipidated analogues, single antagonist concentration 30 nM, agonist αCGRP, mean ± SEM of three independent experiments, SEM
# T2 construct: HA; myc; expressed in transfected cells; host or cells: Cos-7
# T2 sequence (P30988 25-474): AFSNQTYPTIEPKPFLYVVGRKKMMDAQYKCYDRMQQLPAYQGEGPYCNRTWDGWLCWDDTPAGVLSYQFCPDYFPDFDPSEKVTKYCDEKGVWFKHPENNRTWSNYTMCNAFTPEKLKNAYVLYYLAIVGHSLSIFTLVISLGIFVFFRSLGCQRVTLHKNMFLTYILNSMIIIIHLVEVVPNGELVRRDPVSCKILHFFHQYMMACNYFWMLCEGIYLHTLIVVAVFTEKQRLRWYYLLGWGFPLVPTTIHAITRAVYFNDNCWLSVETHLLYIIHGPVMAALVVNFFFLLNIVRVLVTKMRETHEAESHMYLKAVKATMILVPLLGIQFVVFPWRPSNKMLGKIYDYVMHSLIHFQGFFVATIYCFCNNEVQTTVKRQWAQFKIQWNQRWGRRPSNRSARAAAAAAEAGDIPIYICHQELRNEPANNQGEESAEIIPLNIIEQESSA
# T2 sequence (O60894 27-148): as the sequence (O60894 27-148) above
# Experimental: as §2, §3
molecule,measurement,setting,value
CCCCCCCCCCCCCCCC(=O)OCCSC[C@H](NC(=O)[C@@H](NC(=O)[C@@H](NC(=O)CNC(=O)CNC(=O)[C@H](CO)NC(=O)[C@H](CCCNC(=N)N)NC(=O)[C@H](CO)NC(=O)[C@H](CC(C)C)NC(=O)[C@H](CC(C)C)NC(=O)CNC(=O)[C@H](C)NC(=O)[C@H](CC(C)C)NC(=O)[C@H](CCCNC(=N)N)NC(=O)[C@H](Cc1c[nH]cn1)NC(=O)[C@@H](NC(=O)[C@@H](N)C(C)C)[C@@H](C)O)C(C)C)C(C)C)C(=O)N[C@@H](CC(N)=O)C(=O)N[C@@H](CC(N)=O)C(=O)N[C@@H](Cc1ccccc1)C(=O)N[C@H](C(=O)N1CCC[C@H]1C(=O)N[C@H](C(=O)N[C@@H](CC(N)=O)C(=O)N[C@H](C(=O)NCC(=O)N[C@@H](CO)C(=O)N[C@@H](CCCCN)C(=O)N[C@@H](C)C(=O)N[C@@H](Cc1ccccc1)C(N)=O)C(C)C)[C@@H](C)O)C(C)C [K24C-palmitate] (H-VTHRLAGLLSRSGGVVC(Ethyl(2-palmitoyloxy))NNFVPTNVGSKAF-NH2; N-terminus assumed),effect on CIDV response (antagonist screening),[1],attenuated the CIDV response
same,solubility,[2],limited solubility at high concentrations
CCCCCCCCCCCCCCCC(=O)OCCSC[C@H](NC(=O)[C@H](CO)NC(=O)CNC(=O)[C@@H](NC(=O)[C@H](CC(N)=O)NC(=O)[C@@H](NC(=O)[C@@H]1CCCN1C(=O)[C@@H](NC(=O)[C@H](Cc1ccccc1)NC(=O)[C@H](CC(N)=O)NC(=O)[C@H](CC(N)=O)NC(=O)[C@H](CCCCN)NC(=O)[C@@H](NC(=O)[C@@H](NC(=O)CNC(=O)CNC(=O)[C@H](CO)NC(=O)[C@H](CCCNC(=N)N)NC(=O)[C@H](CO)NC(=O)[C@H](CC(C)C)NC(=O)[C@H](CC(C)C)NC(=O)CNC(=O)[C@H](C)NC(=O)[C@H](CC(C)C)NC(=O)[C@H](CCCNC(=N)N)NC(=O)[C@H](Cc1c[nH]cn1)NC(=O)[C@@H](NC(=O)[C@@H](N)C(C)C)[C@@H](C)O)C(C)C)C(C)C)C(C)C)[C@@H](C)O)C(C)C)C(=O)N[C@@H](C)C(=O)N[C@@H](Cc1ccccc1)C(N)=O [K35C-palmitate],fold reduction of antagonist activity compared to hαCGRP8-37 at CGRP receptor,[3]; from pKB values,~70 fold
same,fold reduction of antagonist activity compared to hαCGRP8-37 at AMY1 receptor,[4]; from pKB values,~12 fold
CCCCCCCCCCCCCCCC(=O)OCCSC[C@H](N)C(=O)N[C@H](C(=O)N[C@@H](Cc1c[nH]cn1)C(=O)N[C@@H](CCCNC(=N)N)C(=O)N[C@@H](CC(C)C)C(=O)N[C@@H](C)C(=O)NCC(=O)N[C@@H](CC(C)C)C(=O)N[C@@H](CC(C)C)C(=O)N[C@@H](CO)C(=O)N[C@@H](CCCNC(=N)N)C(=O)N[C@@H](CO)C(=O)NCC(=O)NCC(=O)N[C@H](C(=O)N[C@H](C(=O)N[C@@H](CCCCN)C(=O)N[C@@H](CC(N)=O)C(=O)N[C@@H](CC(N)=O)C(=O)N[C@@H](Cc1ccccc1)C(=O)N[C@H](C(=O)N1CCC[C@H]1C(=O)N[C@H](C(=O)N[C@@H](CC(N)=O)C(=O)N[C@H](C(=O)NCC(=O)N[C@@H](CO)C(=O)N[C@@H](CCCCN)C(=O)N[C@@H](C)C(=O)N[C@@H](Cc1ccccc1)C(N)=O)C(C)C)[C@@H](C)O)C(C)C)C(C)C)C(C)C)[C@@H](C)O [V8C-palmitate],effect on CIDV response (antagonist screening),[1],attenuated the CIDV response
same,"effect on CIDV, dose ranging, 320 nmol/kg","[1]; male mice, 320 nmol/kg s.c. 10 min before anesthesia, six mice per group",did not have a significant antagonist effect
same,"effect on CIDV, dose ranging, 960 nmol/kg","[1]; male mice, 960 nmol/kg s.c. 10 min before anesthesia, six mice per group",significantly reduced CIDV
same,"effect on CIDV, dose-duration study, T-10","[1]; male mice, 960 nmol/kg s.c. 10 min prior to anesthesia and capsaicin application, six mice per group",attenuation evident only at T-10
same,"effect on CIDV, dose-duration study, T-60","[1]; male mice, 960 nmol/kg s.c. 60 min prior to anesthesia and capsaicin application, six mice per group",disappearing by the T-60 timepoint
same,"effect on CIDV, dose ranging, 3,200 nmol/kg","[1]; male mice, 3,200 nmol/kg s.c. 10 min before anesthesia, six mice per group",significant antagonist effect
"NCCCC[C@H](NC(=O)[C@@H](Cc1cc(Br)c(O)c(Br)c1)NC(=O)N1CCC(N2Cc3ccccc3NC2=O)CC1)C(=O)N1CCN(c2ccncc2)CC1 [olcegepant, reference compound]",effect on CIDV response (antagonist screening),[1],attenuated the CIDV response
CCCCCCCCCCCCCCCC(=O)OCCSC[C@H](N)C(=O)N[C@H](C(=O)N[C@H](C(=O)N[C@@H](Cc1c[nH]cn1)C(=O)N[C@@H](CCCNC(=N)N)C(=O)N[C@@H](CC(C)C)C(=O)N[C@@H](C)C(=O)NCC(=O)N[C@@H](CC(C)C)C(=O)N[C@@H](CC(C)C)C(=O)N[C@@H](CO)C(=O)N[C@@H](CCCNC(=N)N)C(=O)N[C@@H](CO)C(=O)NCC(=O)NCC(=O)N[C@H](C(=O)N[C@H](C(=O)N[C@@H](CCCCN)C(=O)N[C@@H](CC(N)=O)C(=O)N[C@@H](CC(N)=O)C(=O)N[C@@H](Cc1ccccc1)C(=O)N[C@H](C(=O)N1CCC[C@H]1C(=O)N[C@H](C(=O)N[C@@H](CC(N)=O)C(=O)N[C@H](C(=O)NCC(=O)N[C@@H](CO)C(=O)N[C@@H](CCCCN)C(=O)N[C@@H](C)C(=O)N[C@@H](Cc1ccccc1)C(N)=O)C(C)C)[C@@H](C)O)C(C)C)C(C)C)C(C)C)[C@@H](C)O)C(C)C [αCGRP7-37-palmitate],effect on CIDV response at lower (mass-matched) dose,[1]; male mice,weaker antagonist activities
"K24C αCGRP8-37: cysteine-substituted αCGRP8-37 analogue at Lys-24 (VTHRLAGLLSRSGGVVCNNFVPTNVGSKAF-NH2; ends and bridges not checked; UniProt P06881 90-119, looked up, variant K24C)","pA2, CGRPr",[3],8.25 ± 0.11
same,"pA2, AMY1r",[4],7.06 ± 0.15
K35C αCGRP8-37: cysteine-substituted αCGRP8-37 analogue at Lys-35,"pA2, CGRPr",[3],8.85 ± 0.31
same,"pA2, AMY1r",[4],7.04 ± 0.18
"V8C αCGRP8-37: cysteine-substituted αCGRP8-37 analogue at Val-8 (CTHRLAGLLSRSGGVVKNNFVPTNVGSKAF-NH2; ends and bridges not checked; UniProt P06881 90-119, looked up, variant V8C)",fold less potent compared to αCGRP8-37 at the CGRP receptor,[3],25 fold
same,"pA2, CGRPr",[3],7.23 ± 0.07
same,"pA2, AMY1r",[4],6.41 ± 0.15
"αCGRP7-37: truncated peptide antagonist which retains the native Cys-7 residue (CVTHRLAGLLSRSGGVVKNNFVPTNVGSKAF; ends and bridges not checked; UniProt P06881 89-119, looked up, fragment)",fold less potent compared to αCGRP8-37 at the CGRP receptor,[3],4.5 fold
same,"pA2, CGRPr",[3],7.98 ± 0.09
same,"pA2, AMY1r",[4],7.10 ± 0.17
"βCGRP8-37: human βCGRP fragment 8-37, synthesized in house",effect on CIDV response at lower (mass-matched) dose,[1]; male mice,weaker antagonist activities

# From article PMC8942775, “Lipidated Calcitonin Gene-Related Peptide (CGRP) Peptide Antagonists Retain CGRP Receptor Activity and Attenuate CGRP Action In Vivo” (Frontiers in Pharmacology, 2022)
